# In patent publication US8927500B2, “Peptidomimetic macrocycles” (Aileron Therapeutics, Inc., priority 2012, dated 2015):
# Where a SMILES comes first, the peptide text is derived from it. Bridges are numbered along the chain shown (N, C = ends). [ ]: non-standard residue; d: D form. Phe(4-COOH) = N[C@@H](Cc1ccc(C(=O)O)cc1)C(=O)O; R8 = C=CCCCCCC[C@@](C)(N)C(=O)O; Cba = N[C@@H](CC1CCC1)C(=O)O; S5 = C=CCCC[C@](C)(N)C(=O)O; Nle = CCCC[C@H](N)C(=O)O
# Assays:
# [1] = Circular dichroism (CD) analysis of alpha-helicity; format: physicochemical; conditions: for Molar Ellipticity 50% TFE (222 in 50% TFE): CD buffer with 50% TFE; for Molar Ellipticity 50% TFE (222 in 50% TFE) / Molar Ellipticity Benign (222 in 0% TFE): 222 nm, 4° C.; for Molar Ellipticity Benign (222 in 0% TFE): benign CD buffer pH 2, 0% TFE; for % Helix benign compared to 50% TFE parent (CD): benign buffer; for Molar Ellipticity TFE-Molar Ellipticity Benign: difference 50% TFE minus benign
# Procedure: To assay the helicity of peptidomimetic macrocycles, the compounds are dissolved in an aqueous solution (e.g. 50 mM potassium phosphate solution at pH 7, or distilled H2O, to concentrations of 25-50 μM). Circular dichroism (CD) spectra are obtained on a spectropolarimeter (e.g., Jasco J-710) using standard measurement parameters (e.g. temperature, 20° C.; wavelength, 190-260 nm; step resolution, 0.5 nm; speed, 20 nm/sec; accumulations, 10; response, 1 sec; bandwidth, 1 nm; path length, 0.1 cm). […] A Peltier temperature controller was used to maintain temperature control of the optical cell. Results are expressed as mean molar ellipticity [0] […] Peptide concentrations were determined by amino acid analysis. Stock solutions of peptides were prepared in benign CD buffer (20 mM phosphoric acid, pH 2). The stocks were used to prepare peptide solutions of 0.05 mg/ml in either benign CD buffer or CD buffer with 50% trifluoroethanol (TFE) for analyses in a 10 mm pathlength cell. […] The average of six scans was reported.
# MDM2 = MDM2 (Homo sapiens, UniProt Q00987); test: Competitive fluorescence polarization assay for MDM2; format: binding; conditions: competitive FP assay, MDM2; for IC50: read-out: IC50 (MDM2); for Ki: read-out: Ki (MDM2)
# Procedure: Dilute 1 mM (in 100% DMSO) of FAM labeled linear peptide with DMSO to 100 μM (dilution 1:10). Then, dilute from 100 μM to 10 μM with water (dilution 1:10) and then dilute with FP buffer from 10 μM to 40 nM (dilution 1:250). This is the working solution which will be a 10 nM concentration in well (dilution 1:4). […] Then, dilute from 5 mM to 500 μM with H2O (dilution 1:10) and then dilute with FP buffer from 500 μM to 20 μM (dilution 1:25).
# Dilute 1 mM (in 100% DMSO) of FAM labeled linear peptide with DMSO to 100 μM (dilution 1:10). Then, dilute from 100 μM to 10 μM with water (dilution 1:10) and then dilute with FP buffer from 10 μM to 40 nM (dilution 1:250). This is the working solution which will be a 10 nM concentration in well (dilution 1:4). […] Dilute 10 mM (in 100% DMSO) with DMSO to 5 mM (dilution 1:2). Then, dilute from 5 mM to 500 μM with H2O (dilution 1:10) and then dilute with FP buffer from 500 μM to 20 μM (dilution 1:25). […] Transfer 10 μl of serial diluted unlabeled peptides to each well which is filled with 20 μl of 300 nM of protein. • 7. Add 10 μl of 10 nM (4×) of FAM labeled peptide into each well and incubate for 3 hr to read.
# MDMX = target: T1, MDMX (Homo sapiens, UniProt O15151); test: Competitive fluorescence polarization assay for MDMX; format: binding; conditions: competitive FP assay; for IC50: read-out: IC50 (MDMX); for Ki: read-out: Ki (MDMX)
# T1 sequence (O15151 1-125): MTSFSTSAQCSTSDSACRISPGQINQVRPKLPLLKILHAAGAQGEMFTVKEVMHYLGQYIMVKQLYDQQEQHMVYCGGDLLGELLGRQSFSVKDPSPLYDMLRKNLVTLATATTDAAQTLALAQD
# SJSA-1 cells = test: Cell lysis by peptidomimetic macrocycles (LDH release); format: cell-based; conditions: 1 h at 37C
# Caspase 3 = Caspase 3 detection assay in SJSA1 cells; format: cell-based; conditions: 48 h, Caspase 3 activation over DMSO-treated cells; for caspase 0.3 uM: 0.3 uM peptide; for caspase 3 uM: 3 uM peptide; for caspase 10 uM: 10 uM peptide; for caspase 30 uM: 30 uM peptide
# Sequence of MDM2 (Q00987 1-125): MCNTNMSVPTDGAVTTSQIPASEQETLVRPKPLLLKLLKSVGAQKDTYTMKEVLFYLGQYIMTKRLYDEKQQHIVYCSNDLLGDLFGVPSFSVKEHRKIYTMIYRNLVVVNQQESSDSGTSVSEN
% Helix 50% TFE compared to 50% TFE parent (CD) [1],Molar Ellipticity 50% TFE (222 in 50% TFE) [1],Molar Ellipticity Benign (222 in 0% TFE) [1],% Helix benign compared to 50% TFE parent (CD) [1],Molar Ellipticity TFE-Molar Ellipticity Benign [1],IC50 (MDM2),Ki (MDM2),IC50 (MDMX),Ki (MDMX),SMILES,6.25 uM % Lysed cells (1 h LDH) (SJSA-1 cells),25 uM % Lysed cells (1 h LDH) (SJSA-1 cells),50 uM % Lysed cells (1 h LDH) (SJSA-1 cells),caspase 0.3 uM (Caspase 3),caspase 1 uM (Caspase 3; 1 uM peptide),caspase 3 uM (Caspase 3),caspase 10 uM (Caspase 3),caspase 30 uM (Caspase 3)
116.4%,−18247.4 deg cm2 dmol-1,−15334.5 deg cm2 dmol-1,97.8%,2912.9 deg cm2 dmol-1,10 to 100 nM,< 10 nM,10 to 100 nM,10 to 100 nM,CC(=O)N[C@@H](CC(C)C)C(=O)N[C@H](C(=O)N[C@@H](Cc1ccccc1)C(=O)N[C@]1(C)CCCCCCC=CCCC[C@@](C)(C(=O)N[C@@H](Cc2c[nH]cn2)C(=O)N[C@@H](Cc2c[nH]cn2)C(=O)N[C@@H](CC(C)C)C(=O)N[C@H](C)C(N)=O)NC(=O)[C@H](CC(C)C)NC(=O)[C@H](CCC(N)=O)NC(=O)[C@H](C)NC(=O)[C@H](Cc2c[nH]c3ccccc23)NC(=O)[C@H](Cc2ccc(O)cc2)NC(=O)[C@H](C)NC1=O)[C@@H](C)O [compound 43] (Ac-LTF[R8]AYWAQL[S5]HHL[dA]-NH2; staple 4-11),0%,−1%,−1%,–,–,–,–,–
136%,−21319.4 deg cm2 dmol-1,−909 deg cm2 dmol-1,5.8%,20410.4 deg cm2 dmol-1,100 to 1000 nM,10 to 100 nM,10 to 100 nM,10 to 100 nM,CCCC[C@H](NC(=O)[C@H](CCC(N)=O)NC(=O)[C@H](CCC(N)=O)NC(=O)[C@]1(C)CCCC=CCCCCCC[C@@](C)(NC(=O)[C@H](Cc2ccccc2)NC(C)=O)C(=O)N[C@@H](C)C(=O)N[C@@H](Cc2ccc(O)cc2)C(=O)N[C@@H](Cc2c[nH]c3ccccc23)C(=O)N[C@@H]([C@@H](C)O)C(=O)N[C@@H](C)C(=O)N[C@@H](CC(C)C)C(=O)N1)C(=O)N[C@@H](C(N)=O)C(C)C [compound 41] (Ac-F[R8]AYWTAL[S5]QQ[Nle][dV]-NH2; staple 2-9),–,–,–,–,–,–,–,–
–,–,–,–,–,< 10 nM,< 10 nM,10 to 100 nM,10 to 100 nM,"CC(=O)N[C@@H](C)C(=O)N[C@@H](C)C(=O)N[C@@H](CC(C)C)C(=O)N[C@H](C(=O)N[C@@H](Cc1ccccc1)C(=O)N[C@]1(C)CCCCCCC=CCCC[C@@](C)(C(=O)N[C@@H](CO)C(=O)N[C@@H](C)C(=O)N[C@@H](C)C(=O)N[C@@H](C)C(=O)N[C@H](C)C(N)=O)NC(=O)[C@H](CC2CCC2)NC(=O)[C@H](CCC(N)=O)NC(=O)[C@H](C)NC(=O)[C@H](Cc2c[nH]c3ccccc23)NC(=O)[C@H](Cc2ccc(O)cc2)NC(=O)[C@H](CCC(=O)O)NC1=O)[C@@H](C)O (single isomer, unassigned) [compound 359]",0%,0%,0%,3,9,11,13,23
–,–,–,–,–,10 to 100 nM,< 10 nM,10 to 100 nM,< 10 nM,CCCC[C@H](NC(=O)[C@H](C)NC(=O)[C@H](CO)NC(=O)[C@]1(C)CCCC=CCCCCCC[C@@](C)(NC(=O)[C@H](Cc2ccccc2)NC(=O)[C@@H](NC(=O)[C@H](CC(C)C)NC(C)=O)[C@@H](C)O)C(=O)N[C@@H](CCC(=O)O)C(=O)N[C@@H](Cc2ccc(C(=O)O)cc2)C(=O)N[C@@H](Cc2c[nH]c3ccccc23)C(=O)N[C@@H](C)C(=O)N[C@@H](CCC(N)=O)C(=O)N[C@@H](CC2CCC2)C(=O)N1)C(=O)N[C@@H](C)C(N)=O [compound 244] (Ac-LTF[R8]E[Phe(4-COOH)]WAQ[Cba][S5]SA[Nle]A-NH2; staple 4-11),0%,0%,4%,1,–,2,7,17
